± gives the expanded uncertainty stated by the source.
Assay: activity coefficient (dimensionless); of the first substance listed, at infinite dilution; xn = mol fraction of the nth substance listed
Settings: 101 kPa, Liquid, Chromatography, x1 = 0

Cc1ccccc1C [1,2-dimethylbenzene] + CC1(C)[C@@H]2CC[C@@]1(CS(=O)(=O)[O-])C(=O)C2.CCCCCCCCCCCCCC[N+](CCCCCC)(CCCCCC)CCCCCC
activity coefficient (323.15 K): 0.49 ± 0.04
activity coefficient (333.15 K): 0.77 ± 0.05
activity coefficient (343.15 K): 1.13 ± 0.07

Cc1ccccc1C [1,2-dimethylbenzene] + CCCCCCCCCCCCCC[N+](CCCCCC)(CCCCCC)CCCCCC.C[C@H](O)C(=O)[O-]
activity coefficient (323.15 K): 0.53 ± 0.04
activity coefficient (353.15 K): 0.55 ± 0.04
activity coefficient (373.15 K): 0.58 ± 0.04

Cc1cccc(C)c1 [1,3-dimethylbenzene] + CC1(C)[C@@H]2CC[C@@]1(CS(=O)(=O)[O-])C(=O)C2.CCCCCCCCCCCCCC[N+](CCCCCC)(CCCCCC)CCCCCC
activity coefficient (323.15 K): 0.52 ± 0.04
activity coefficient (333.15 K): 0.81 ± 0.05
activity coefficient (343.15 K): 1.16 ± 0.07

Cc1cccc(C)c1 [1,3-dimethylbenzene] + CCCCCCCCCCCCCC[N+](CCCCCC)(CCCCCC)CCCCCC.C[C@H](O)C(=O)[O-]
activity coefficient (323.15 K): 0.57 ± 0.04
activity coefficient (353.15 K): 0.59 ± 0.04
activity coefficient (373.15 K): 0.6 ± 0.1

Cc1ccc(C)cc1 [1,4-dimethylbenzene] + CC1(C)[C@@H]2CC[C@@]1(CS(=O)(=O)[O-])C(=O)C2.CCCCCCCCCCCCCC[N+](CCCCCC)(CCCCCC)CCCCCC
activity coefficient (323.15 K): 0.51 ± 0.04
activity coefficient (333.15 K): 0.8 ± 0.1
activity coefficient (343.15 K): 1.17 ± 0.07

Cc1ccc(C)cc1 [1,4-dimethylbenzene] + CCCCCCCCCCCCCC[N+](CCCCCC)(CCCCCC)CCCCCC.C[C@H](O)C(=O)[O-]
activity coefficient (323.15 K): 0.58 ± 0.04
activity coefficient (353.15 K): 0.58 ± 0.04
activity coefficient (373.15 K): 0.58 ± 0.04

C1COCCO1 [1,4-dioxane] + CC1(C)[C@@H]2CC[C@@]1(CS(=O)(=O)[O-])C(=O)C2.CCCCCCCCCCCCCC[N+](CCCCCC)(CCCCCC)CCCCCC
activity coefficient (323.15 K): 0.52 ± 0.04
activity coefficient (333.15 K): 0.74 ± 0.05
activity coefficient (343.15 K): 1

C#CCCCCC [1-heptyne] + CC1(C)[C@@H]2CC[C@@]1(CS(=O)(=O)[O-])C(=O)C2.CCCCCCCCCCCCCC[N+](CCCCCC)(CCCCCC)CCCCCC
activity coefficient (323.15 K): 0.49 ± 0.04
activity coefficient (333.15 K): 0.78 ± 0.05
activity coefficient (343.15 K): 1.17 ± 0.07

C#CCCCC [1-hexyne] + CC1(C)[C@@H]2CC[C@@]1(CS(=O)(=O)[O-])C(=O)C2.CCCCCCCCCCCCCC[N+](CCCCCC)(CCCCCC)CCCCCC
activity coefficient (323.15 K): 0.46 ± 0.04
activity coefficient (333.15 K): 0.69 ± 0.05
activity coefficient (343.15 K): 0.95 ± 0.06

CCC[N+](=O)[O-] [1-nitropropane] + CC1(C)[C@@H]2CC[C@@]1(CS(=O)(=O)[O-])C(=O)C2.CCCCCCCCCCCCCC[N+](CCCCCC)(CCCCCC)CCCCCC
activity coefficient (323.15 K): 0.35 ± 0.03
activity coefficient (333.15 K): 0.55 ± 0.04
activity coefficient (343.15 K): 0.82 ± 0.05

CCC[N+](=O)[O-] [1-nitropropane] + CCCCCCCCCCCCCC[N+](CCCCCC)(CCCCCC)CCCCCC.C[C@H](O)C(=O)[O-]
activity coefficient (323.15 K): 0.33 ± 0.03
activity coefficient (353.15 K): 0.34 ± 0.03
activity coefficient (373.15 K): 0.36 ± 0.03

CC(C)CC(C)(C)C [2,2,4-trimethylpentane] + CCCCCCCCCCCCCC[N+](CCCCCC)(CCCCCC)CCCCCC.C[C@H](O)C(=O)[O-]
activity coefficient (323.15 K): 1.33 ± 0.09
activity coefficient (353.15 K): 1.27 ± 0.08
activity coefficient (373.15 K): 1.25 ± 0.08

CC(C)CO [2-methyl-1-propanol] + CC1(C)[C@@H]2CC[C@@]1(CS(=O)(=O)[O-])C(=O)C2.CCCCCCCCCCCCCC[N+](CCCCCC)(CCCCCC)CCCCCC
activity coefficient (323.15 K): 0.08 ± 0.03
activity coefficient (333.15 K): 0.15 ± 0.03
activity coefficient (343.15 K): 0.24 ± 0.03

CC#N [acetonitrile] + CC1(C)[C@@H]2CC[C@@]1(CS(=O)(=O)[O-])C(=O)C2.CCCCCCCCCCCCCC[N+](CCCCCC)(CCCCCC)CCCCCC
activity coefficient (323.15 K): 0.46 ± 0.04
activity coefficient (333.15 K): 0.66 ± 0.05
activity coefficient (343.15 K): 0.89 ± 0.06

CC#N [acetonitrile] + CCCCCCCCCCCCCC[N+](CCCCCC)(CCCCCC)CCCCCC.C[C@H](O)C(=O)[O-]
activity coefficient (323.15 K): 0.45 ± 0.04
activity coefficient (353.15 K): 0.44 ± 0.04
activity coefficient (373.15 K): 0.43 ± 0.04

c1ccccc1 [benzene] + CC1(C)[C@@H]2CC[C@@]1(CS(=O)(=O)[O-])C(=O)C2.CCCCCCCCCCCCCC[N+](CCCCCC)(CCCCCC)CCCCCC
activity coefficient (323.15 K): 0.36 ± 0.03
activity coefficient (333.15 K): 0.51 ± 0.04
activity coefficient (343.15 K): 0.69 ± 0.05

Reference: the NIST ThermoML archive (doi:10.1021/je500050p)
